Reference: ChEMBL document CHEMBL3102853, “Carbonic anhydrase inhibitors. Synthesis, and molecular structure of novel series N-substituted N'-(2-arylmethylthio-4-chloro-5-methylbenzenesulfonyl)guanidines and their inhibition of human cytosolic isozymes I and II and the transmembrane tumor-associated isozymes IX and XII” (Eur J Med Chem, 2014)
Activity calls are given as the source filed them. No cut-off for these calls is given here.

How the values were obtained:
Assay type in all cases: functional
[1] = Cytotoxicity against human Hs 578T cells at 10 uM; conditions: read-out: GI
MDA-MB-468 = assay: Cytotoxicity against human MDA-MB-468 cells at 10 uM; conditions: read-out: GI
MCF7 = assay: Cytotoxicity against human MCF7 cells at 10 uM; conditions: read-out: GI
T47D = assay: Cytotoxicity against human T47D cells at 10 uM; conditions: read-out: GI
DU-145 = assay: Cytotoxicity against human DU145 cells at 10 uM; conditions: read-out: GI
PC-3 = assay: Cytotoxicity against human PC3 cells at 10 uM; conditions: read-out: GI
A498 = assay: Cytotoxicity against human A498 cells at 10 uM; conditions: read-out: GI
NCI/ADR-RES = assay: Cytotoxicity against human NCI-ADR-RES cells at 10 uM
LOX IMVI = assay: Cytotoxicity against human LOXIMVI cells at 10 uM; conditions: read-out: GI
OVCAR-3 = assay: Cytotoxicity against human OVCAR3 cells at 10 uM; conditions: read-out: GI
UACC-62 = assay: Cytotoxicity against human UACC62 cells at 10 uM; conditions: read-out: GI
SK-MEL-2 = assay: Cytotoxicity against human SK-MEL-2 cells at 10 uM; conditions: read-out: GI
SF-268 = assay: Cytotoxicity against human SF268 cells at 10 uM; conditions: read-out: GI
SW-620 = assay: Cytotoxicity against human SW620 cells at 10 uM; conditions: read-out: GI
SNB-75 = assay: Cytotoxicity against human SNB75 cells at 10 uM; conditions: read-out: GI
KM12 = assay: Cytotoxicity against human KM12 cells at 10 uM; conditions: read-out: GI
HT-29 = assay: Cytotoxicity against human HT-29 cells at 10 uM; conditions: read-out: GI
HOP-92 = assay: Cytotoxicity against human HOP92 cells at 10 uM; conditions: read-out: GI
NCI-H460 = assay: Cytotoxicity against human NCI-H460 cells at 10 uM; conditions: read-out: GI
A549 = assay: Cytotoxicity against human A549 cells at 10 uM; conditions: read-out: GI
SR = assay: Cytotoxicity against human SR cells at 10 uM; conditions: read-out: GI
MOLT-4 = assay: Cytotoxicity against human MOLT4 cells at 10 uM; conditions: read-out: GI
RPMI-8226 = assay: Cytotoxicity against human RPMI8226 cells at 10 uM; conditions: read-out: GI
K562 = assay: Cytotoxicity against human K562 cells at 10 uM; conditions: read-out: GI
HL-60(TB) = assay: Cytotoxicity against human HL-60(TB) cells at 10 uM; conditions: read-out: GI

Compound Cc1cc(S(=O)(=O)NC(=N)Nc2cccc(S(N)(=O)=O)c2)c(SCc2ccc(C(F)(F)F)cc2)cc1Cl has an inhibition of growth at 10 µM [1] of 13%, an inhibition of growth at 10 µM (MDA-MB-468) of 26% and an inhibition of growth at 10 µM (MCF7) of 51%. For the same compound, the inhibition of growth at 10 µM (T47D) was 35%, the inhibition of growth at 10 µM (DU-145) was 6% and the inhibition of growth at 10 µM (PC-3) was 68%. The inhibition of growth at 10 µM (A498) was 13%, the “growth inhibition (GI)” value (NCI/ADR-RES) was “inactive” and the inhibition of growth at 10 µM (LOX IMVI) was 20%. For the same compound, the inhibition of growth at 10 µM (OVCAR-3) was 33%, the inhibition of growth at 10 µM (UACC-62) was 35% and the inhibition of growth at 10 µM (SK-MEL-2) was 27%. The inhibition of growth at 10 µM (SF-268) was 19%, the inhibition of growth at 10 µM (SW-620) was 5% and the inhibition of growth at 10 µM (SNB-75) was 53%. It also gave an inhibition of growth at 10 µM (KM12) of 34%, an inhibition of growth at 10 µM (HT-29) of 20% and an inhibition of growth at 10 µM (HOP-92) of 37%. For the same compound, the inhibition of growth at 10 µM (NCI-H460) was 19%, the inhibition of growth at 10 µM (A549) was 36% and the inhibition of growth at 10 µM (SR) was 54%. The inhibition of growth at 10 µM (MOLT-4) was 51%, the inhibition of growth at 10 µM (RPMI-8226) was 39% and the inhibition of growth at 10 µM (K562) was 48%. It also gave an inhibition of growth at 10 µM (HL-60(TB)) of 33%.
